PubChem BioAssay AID1996
≈ marks a conversion by molar mass, not a printed value.

Details: buffer; pH 7.4; 200.0 µM

Row | solubility kinetic | Structure (SMILES)
1 | 1.6 µg/mL (≈ 6.11 µM) | Cc1noc(C(=O)Nc2ccc(C#N)cc2)c1Cl
2 | > 41.8 µg/mL | Cc1ccnc(NC(=O)Cc2c(F)cccc2Cl)c1
3 | 5 µg/mL (≈ 15.7 µM) | O=S(=O)(Nc1ccc(Cl)cc1)c1cccc2cccnc12
4 | > 49.7 µg/mL | OCCN(CC#CCC(O)(c1ccccc1)C1CCCC1)CCO (stereo not drawn)
5 | > 47.2 µg/mL | COc1cc(CN2CCN(c3ncccn3)CC2)cc(OC)c1
6 | 45 µg/mL (≈ 142 µM) | CN(Cc1cccs1)C(=O)CSc1nc2ccccc2[nH]1
7 | > 42.2 µg/mL | Cc1ccc(Nc2ncc3c(n2)CC(C)CC3=O)c(C)c1 (stereo not drawn)
8 | 17 µg/mL (≈ 50.2 µM) | COc1ccccc1CN(C)C(=O)CN1C(=O)c2ccccc2C1=O
9 | > 52.1 µg/mL | Cc1[nH]c2ccccc2c1-c1csc(NC(=O)CSCCO)n1
10 | > 55 µg/mL | CCn1c(SCC#N)nc2cc(S(=O)(=O)N3CCOCC3)ccc21
11 | 0.7 µg/mL (≈ 2.2 µM) | CN(C)c1cc(-c2ccc(Cl)c(Cl)c2)oc(=O)c1Cl
12 | 3 µg/mL (≈ 10.7 µM) | COc1ccc(-c2cc3ccccc3nc2N)cc1OC
13 | 1.7 µg/mL (≈ 6.37 µM) | O=[N+]([O-])c1cccnc1Sc1ccccc1Cl
14 | 1 µg/mL (≈ 3.55 µM) | O=C(Nc1ccc(Cl)cc1)/C(=C1\CCCN1)[N+](=O)[O-]
15 | 29.7 µg/mL (≈ 128 µM) | Cc1cc(F)ccc1NC(=O)c1cnccn1
16 | > 48.7 µg/mL | C/C(CC(=O)Nc1cc(C)ccn1)=N\NC(=O)c1ccccc1C
17 | > 32.7 µg/mL | CC(C)NC(=O)COc1ccccc1C#N
18 | < 0.1 µg/mL | Cc1cc(C)nc(Nc2nc3ccccc3s2)n1

The remaining lines, values behind:

Row | Structure (SMILES) | solubility kinetic
19 | CS(=O)(=O)c1ccc2nc(NC(=O)c3ccccc3)sc2c1 | 1.5 µg/mL (≈ 4.51 µM)
20 | O=C(Nc1nc2cc3c(cc2s1)OCCO3)c1cccs1 | 0.6 µg/mL (≈ 1.88 µM)
21 | COc1ccc(CCNC(=O)C(=O)NCc2cccs2)cc1OC | 21.4 µg/mL (≈ 61.4 µM)
22 | CC(C)(C)NC(=O)CCCCCCCC(=O)NC(C)(C)C | > 44.8 µg/mL
23 | CN1C2=NCCN2C(=O)c2cc(Cl)ccc21 | 30.9 µg/mL (≈ 131 µM)
24 | COc1ccc(CNC(=O)c2cc3ccccc3o2)cc1OC | > 46.7 µg/mL
25 | Cc1ccccc1C(=O)Nc1ccccc1C(=O)N1CCC(C)CC1 | 32.9 µg/mL (≈ 97.8 µM)
26 | O=[N+]([O-])c1ccc(Cc2cncc(O)c2)cc1 | 34.1 µg/mL (≈ 148 µM)
27 | CSCC(=O)N1CCCC(CO)(CCCc2ccccc2)C1 (stereo not drawn) | > 48.2 µg/mL
28 | CC(C)(C)SCCNC(=O)CN1C(=O)c2cccc3cccc1c23 | 2.8 µg/mL (≈ 8.18 µM)
29 | Fc1ccc(NC(=S)Nc2nccs2)cc1 | 14.9 µg/mL (≈ 58.8 µM)
30 | Cc1ccc(C(=O)C2CCN(C(=S)NCC3CCCO3)CC2)cc1 (stereo not drawn) | 46.7 µg/mL (≈ 135 µM)
31 | COc1cc(OC)cc(C(=O)NCC(=O)OCC(=O)NC2CCCc3ccccc32)c1 (stereo not drawn) | 58.5 µg/mL (≈ 137 µM)
32 | CC(Sc1ncccn1)C(=O)NNC(=O)c1cccc(Cl)c1 (stereo not drawn) | > 50.5 µg/mL
33 | CC(Sc1ccc(S(=O)(=O)N2CCCC2)cn1)C(N)=O (stereo not drawn) | > 47.3 µg/mL
34 | CC1CC(C)(C)NC(=S)N1CC(=O)NCc1ccc2c(c1)OCO2 (stereo not drawn) | 36.2 µg/mL (≈ 104 µM)
35 | Cn1cc(C(=O)OCC(=O)NC2CCCC2)c2ccccc21 | 7.2 µg/mL (≈ 24 µM)
36 | Cc1ccc(NC(=O)Nc2cccc(F)c2)nc1 | 1.3 µg/mL (≈ 5.3 µM)
37 | COc1ccc(S(=O)(=O)N2CCN(C(=O)c3cc4c(s3)CCC4)CC2)cc1 | 7.7 µg/mL (≈ 18.9 µM)
38 | CCCCS(=O)(=O)N1CCCC(C(=O)Oc2ccc(Cl)cc2)C1 (stereo not drawn) | < 0.8 µg/mL
39 | CCOC(=O)c1csc(-c2sccc2Br)n1 | 18.7 µg/mL (≈ 58.8 µM)
40 | O=[N+]([O-])c1cccnc1Sc1ccc(Br)cc1 | 1.7 µg/mL (≈ 5.46 µM)
41 | CNC(=O)c1cc(S(=O)(=O)NC2CCCCCC2)ccc1C | > 48.7 µg/mL
42 | O=C(C1CC1)N1CCN(c2ccc([N+](=O)[O-])cc2-n2cccc2)CC1 | 6.3 µg/mL (≈ 18.5 µM)
43 | CC(C)NC(=O)C(=O)NCc1ccccn1 | > 33.2 µg/mL
44 | Cc1cc(NC(=O)COc2ccc3ccccc3c2Br)no1 | 14.4 µg/mL (≈ 39.9 µM)
45 | CC(=O)N/C(=N/c1nc(C)cc(C)n1)Nc1ccc(C)cc1Cl | 0.2 µg/mL (≈ 0.603 µM)
46 | O=C(CNC(=O)c1ccc(-c2ccccc2)cc1)Nc1cccc(CO)c1 | 9.3 µg/mL (≈ 25.8 µM)
47 | COc1ccccc1/C=C/C(=O)NC(=S)Nc1ccccn1 | 1.3 µg/mL (≈ 4.15 µM)
48 | CN(C)S(=O)(=O)Nc1cccc(Br)c1 | > 41.9 µg/mL
